Laboratory results from ChEMBL document CHEMBL1201862, “PubChem BioAssay data set” (2004).
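In this assay, cells in 96-well plates receive the compound at five concentrations for 48 hours. Endpoints are linearly interpolated between the surrounding concentrations. GI50: concentration for 50% inhibition of growth.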 Active and inactive are the calls of the source. Cut-off read from the data, not from the text of the source: active = GI50 up to about 1.1 µM and inactive = higher.

Key:
Test in all cases: NCI-60 cell line screen, 48 h
COLO 205 = tested on: COLO 205
LOX IMVI = tested on: LOX IMVI
SK-MEL-28 = tested on: SK-MEL-28
RXF 393 = tested on: RXF 393
SR = tested on: SR
SK-MEL-5 = tested on: SK-MEL-5
CCRF-CEM = tested on: CCRF-CEM
786-0 = tested on: 786-0
U-251 = tested on: U-251
A549 = tested on: A549
SN12C = tested on: SN12C
UO-31 = tested on: UO-31
OVCAR-4 = tested on: OVCAR-4
SF-268 = tested on: SF-268
MDA-MB-231 = tested on: MDA-MB-231
HOP-92 = tested on: HOP-92
EKVX = tested on: EKVX
OVCAR-8 = tested on: OVCAR-8
HOP-62 = tested on: HOP-62
SNB-75 = tested on: SNB-75
SK-OV-3 = tested on: SK-OV-3
MDA-MB-435 = tested on: MDA-MB-435
TK-10 = tested on: TK-10
Hs-578T = tested on: Hs-578T
SK-MEL-2 = tested on: SK-MEL-2
SNB-19 = tested on: SNB-19
IGROV-1 = tested on: IGROV-1
HCT-116 = tested on: HCT-116
A498 = tested on: A498
MDA-N = tested on: MDA-N
UACC-257 = tested on: UACC-257
MCF7 = tested on: MCF7
HCC 2998 = tested on: HCC 2998
NCI/ADR-RES = tested on: NCI/ADR-RES
HT-29 = tested on: HT-29
NCI-H522 = tested on: NCI-H522
Malme-3M = tested on: Malme-3M
NCI-H460 = tested on: NCI-H460
CAKI-1 = tested on: CAKI-1
UACC-62 = tested on: UACC-62
DU-145 = tested on: DU-145
OVCAR-5 = tested on: OVCAR-5
SF-539 = tested on: SF-539
PC-3 = tested on: PC-3
M14 = tested on: M14
K562 = tested on: K562
HL-60 = tested on: HL-60
SF-295 = tested on: SF-295
NCI-H226 = tested on: NCI-H226
OVCAR-3 = tested on: OVCAR-3
ACHN = tested on: ACHN
SW-620 = tested on: SW-620
BT-549 = tested on: BT-549
HCT-15 = tested on: HCT-15
NCI-H23 = tested on: NCI-H23
MOLT-4 = tested on: MOLT-4
RPMI-8226 = tested on: RPMI-8226
KM12 = tested on: KM12

SMILES: CC1=NN2C=Nc3c(c(-c4ccc(Cl)cc4)cn3-c3ccc(C)cc3)C2N1 (stereo not given)
- GI50 (COLO 205): > 100 µM (inactive)
- GI50 (LOX IMVI): > 100 µM (inactive)
- GI50 (SK-MEL-28): > 100 µM (inactive)
- GI50 (RXF 393): 42.5 µM (inactive)
- GI50 (SR): 0.288 µM (active)
- GI50 (SK-MEL-5): 87.9 µM (inactive)
- GI50 (CCRF-CEM): > 100 µM (inactive)
- GI50 (786-0): 19.5 µM (inactive)
- GI50 (U-251): 76.2 µM (inactive)
- GI50 (A549): > 100 µM (inactive)
- GI50 (SN12C): > 100 µM (inactive)
- GI50 (UO-31): > 100 µM (inactive)
- GI50 (OVCAR-4): 6.24 µM (inactive)
- GI50 (SF-268): 71.1 µM (inactive)
- GI50 (MDA-MB-231): 71.1 µM (inactive)
- GI50 (HOP-92): 17.1 µM (inactive)
- GI50 (EKVX): > 100 µM (inactive)
- GI50 (OVCAR-8): 29.9 µM (inactive)
- GI50 (HOP-62): 36.5 µM (inactive)
- GI50 (SNB-75): 30.5 µM (inactive)
- GI50 (SK-OV-3): 61.9 µM (inactive)
- GI50 (MDA-MB-435): > 100 µM (inactive)
- GI50 (TK-10): 42.8 µM (inactive)
- GI50 (Hs-578T): 11.3 µM (inactive)
- GI50 (SK-MEL-2): > 100 µM (inactive)
- GI50 (SNB-19): 54.5 µM (inactive)
- GI50 (IGROV-1): 76.6 µM (inactive)
- GI50 (HCT-116): 46.2 µM (inactive)
- GI50 (A498): > 100 µM (inactive)
- GI50 (MDA-N): > 100 µM (inactive)
- GI50 (UACC-257): > 100 µM (inactive)
- GI50 (MCF7): > 100 µM (inactive)
- GI50 (HCC 2998): > 100 µM (inactive)
- GI50 (NCI/ADR-RES): 55.8 µM (inactive)
- GI50 (HT-29): 64.4 µM (inactive)
- GI50 (NCI-H522): > 100 µM (inactive)
- GI50 (Malme-3M): > 100 µM (inactive)
- GI50 (NCI-H460): 56.6 µM (inactive)
- GI50 (CAKI-1): 97.3 µM (inactive)
- GI50 (UACC-62): 61 µM (inactive)
- GI50 (DU-145): > 100 µM (inactive)
- GI50 (OVCAR-5): > 100 µM (inactive)
- GI50 (SF-539): 87.1 µM (inactive)
- GI50 (PC-3): 32.9 µM (inactive)
- GI50 (M14): > 100 µM (inactive)
- GI50 (K562): > 100 µM (inactive)
- GI50 (HL-60): > 100 µM (inactive)
- GI50 (SF-295): 39.3 µM (inactive)
- GI50 (NCI-H226): > 100 µM (inactive)
- GI50 (OVCAR-3): > 100 µM (inactive)
- GI50 (ACHN): > 100 µM (inactive)
- GI50 (SW-620): > 100 µM (inactive)
- GI50 (BT-549): > 100 µM (inactive)
- GI50 (HCT-15): > 100 µM
- GI50 (NCI-H23): > 100 µM (inactive)

SMILES: O=[N+]([O-])c1ccccc1S(=O)(=O)c1cccc2c1NCCC2
- GI50 (COLO 205): 60.8 µM (inactive)
- GI50 (LOX IMVI): 39.1 µM (inactive)
- GI50 (SK-MEL-28): 45.6 µM (inactive)
- GI50 (RXF 393): 37.8 µM (inactive)
- GI50 (SR): 48.2 µM (inactive)
- GI50 (SK-MEL-5): 19.7 µM (inactive)
- GI50 (CCRF-CEM): 28 µM (inactive)
- GI50 (786-0): > 100 µM (inactive)
- GI50 (A549): 31.9 µM (inactive)
- GI50 (SN12C): 86.7 µM (inactive)
- GI50 (UO-31): 47.4 µM (inactive)
- GI50 (OVCAR-4): > 100 µM (inactive)
- GI50 (SF-268): > 100 µM (inactive)
- GI50 (MOLT-4): 21.5 µM (inactive)
- GI50 (MDA-MB-231): > 100 µM (inactive)
- GI50 (HOP-92): 32.7 µM (inactive)
- GI50 (EKVX): 99.3 µM (inactive)
- GI50 (OVCAR-8): 69.3 µM (inactive)
- GI50 (HOP-62): 72.6 µM (inactive)
- GI50 (SNB-75): 14.8 µM (inactive)
- GI50 (SK-OV-3): 68.4 µM (inactive)
- GI50 (MDA-MB-435): 27.7 µM (inactive)
- GI50 (RPMI-8226): > 100 µM (inactive)
- GI50 (TK-10): > 100 µM (inactive)
- GI50 (Hs-578T): 51.1 µM (inactive)
- GI50 (SK-MEL-2): 21.6 µM (inactive)
- GI50 (SNB-19): 65.2 µM (inactive)
- GI50 (IGROV-1): 34.3 µM (inactive)
- GI50 (KM12): 96.4 µM (inactive)
- GI50 (HCT-116): 42.7 µM (inactive)
- GI50 (A498): > 100 µM (inactive)
- GI50 (MDA-N): 28.1 µM (inactive)
- GI50 (UACC-257): 18 µM (inactive)
- GI50 (MCF7): 38.4 µM (inactive)
- GI50 (HCC 2998): 56.8 µM (inactive)
- GI50 (NCI/ADR-RES): 29 µM (inactive)
- GI50 (HT-29): 29.7 µM (inactive)
- GI50 (Malme-3M): 48.1 µM (inactive)
- GI50 (NCI-H460): 44.2 µM (inactive)
- GI50 (CAKI-1): 63.5 µM (inactive)
- GI50 (UACC-62): 24.2 µM (inactive)
- GI50 (DU-145): 60.5 µM (inactive)
- GI50 (OVCAR-5): > 100 µM (inactive)
- GI50 (SF-539): > 100 µM (inactive)
- GI50 (PC-3): 27.9 µM (inactive)
- GI50 (M14): 82.8 µM (inactive)
- GI50 (K562): 21.3 µM (inactive)
- GI50 (HL-60): 24 µM (inactive)
- GI50 (SF-295): 31.5 µM (inactive)
- GI50 (NCI-H226): 91 µM (inactive)
- GI50 (OVCAR-3): 40.6 µM (inactive)
- GI50 (ACHN): 55.8 µM (inactive)
- GI50 (SW-620): > 100 µM (inactive)
- GI50 (BT-549): 32.1 µM (inactive)
- GI50 (HCT-15): 35 µM
